Test results published in US9714433B2, “Human pluripotent stem cells induced from undifferentiated stem cells derived from a human postnatal tissue” (Kyoto University, priority 2007, dated 2017).

How the values were obtained:
mouse Nanog = experiment: Nanog expression of colonies by quantitative PCR; format: cell-based; conditions: three genes + MS-275 0.1 or 1.0 μM; compared with alkaline phosphatase-negative colonies; FIG. 3
Method: The expression of target gene of each colony including an alkaline phosphatase-positive colonies was determined using quantitative PCR in the following manner. Colonies developed by the induction of pluripotent stem cells were harvested, and RNA was extracted using the Recoverall total nucleic acid isolation kit for FFPE (manufactured by Ambion). After synthesizing cDNA from the extracted RNA, the target gene was amplified using the Taqman Preamp mastermix (manufactured by Applied Biosystems). As the primers for quantitative PCR, the Taqman gene exprESsion assay (manufactured by Applied Biosystems) was used. […] Human Hprt: Hs99999909_m1, human Nanog: Hs02387400_g1, human Tert: Hs00162669_m1, Mouse Hprt: Mm01545399_m1, mouse Nanog: Ma02019550_s1. Then, the amount expressed of the Nanog gene was confirmed by quantitative PCR, and the expression of mouse Nanog of colonies of pluripotent stem cells having alkaline phosphatase activity was confirmed (FIG. 3).

[1] = system: cells derived from mouse bone marrow; experiment: Induction of mouse pluripotent stem cells by three gene introduction and MS-275 treatment (colony formation, alkaline phosphatase staining); format: cell-based
Method: Staining for confirming alkaline phosphatase activity which is a characteristic of pluripotent stem cells was conducted in the following manner. After removing the culture medium, a 10% formalin neutral buffer solution was added to wells, and cells were fixed at room temperature for 5 minutes. After washing with a phosphate buffer etc., a chromogenic substrate of alkaline phosphatase, 1 step NBT/BCIP (manufactured by Pierce) was added and reacted at room temperature for 20 to 30 minutes. Cells having alkaline phosphatase activity were all stained blue violet.
The primary culture cells derived from mouse bone marrow containing undifferentiated stem cells that had been stored frozen after preparing in a manner similar to Example 11 were plated at a concentration of 5×10^3 cells/cm^2 on a 24-well plastic plate (manufactured by Becton Dickinson) having the bottom which had been gelatin-coated with a 0.1% gelatin/phosphate buffer, and 2 ml each of the MAPC medium was added.
Eight hours later, the medium was removed, 2 ml each of the three gene (human Oct3/4, Sox2 and Klf4) retrovirus vector solution prepared as in Example 1 were added, and after further adding MS-275, a histone deacetylase inhibitor, at a final concentration of 1 or 0.1 μM, they were cultured at 37° C. for 14 hours. […]

syngeneic C57BL/6N mice = experiment: Teratoma formation of induced mouse pluripotent stem cells transplanted subcutaneously; format: in vivo; conditions: cells induced by three genes + MS-275; 2×10^7 cells/mouse subcutaneously; 34 days later; three germ layers observed
Method: From the extracted teratoma, slices were prepared, and differentiation potential into three germ layers was analyzed by immunological and histological staining (HE stain, alcian blue stain). As a result, GFAP-positive cells (the nervous system) and keratin producing cells (skin cells) as the ectodermic system, smooth muscle actin-positive cells (smooth muscle cells), bone tissues and cartilage tissues as the mesodermic system, and intestinal tract tissues (endodermal epithelium positive for MUC-1) as the endodermic system were observed.

Nc1ccccc1NC(=O)c1ccc(CNC(=O)OCc2cccnc2)cc1 [MS-275, N-(2-aminophenyl)-4-[N-(pyridine-3-yl-methoxycarbonyl)aminomethyl]benzamide]
expression of Nanog in alkaline phosphatase-positive colonies (mouse Nanog): significantly higher than the alkaline phosphatase-negative colonies | formation of pluripotent stem cell colonies ([1]; three genes (human Oct3/4, Sox2, Klf4) retrovirus + MS-275 1 or 0.1 μM, fifteen days after): formed colonies composed of mouse ES cell-like small cells | alkaline phosphatase activity staining of colonies ([1]; three genes + MS-275 1 or 0.1 μM): stained blue violet by alkaline phosphatase activity | teratoma formation (syngeneic C57BL/6N mice): teratoma that formed was extracted
